Experiments:
[1] = stability in DPBS at 37 °C (UV-HPLC); type: physicochemical; details: for decomposition after 60 h: Sidak's multiple comparisons test; for decomposed after 2 h: linear interpolation between 0 h and 10 h
Description: (§1) First, 1089 µL DPBS or Ham’s F12 nutrient mixture were mixed with 11 µL of 10 mM stock solution of 1, 2, or 3 in DMSO (final DMSO content: 1%) and agitated at 37 °C. Then, 80 µL of the solution was analyzed by UV-HPLC (216 nm) using an XSelect™ (HSS T3, 3.5 μm, 100 × 4.6 mm) stationary phase and 40% acetonitrile in 25 mM (NH4)H2PO4 buffer (pH 9.3) at a flow of 1 mL/min (k1,2 = 5.6, k3 = 5.9). The fraction of stable compounds was calculated as the area under the curve of the compound peak for each combination of compound and matrix related to the 0 h time point with 100%. Three non-consecutive HPLC analyses were performed for each time point, combination of compounds, and matrix.

[2] = molecular target: T1, human mAChR M2 (Homo sapiens, UniProt P08172); assay: competitive radioligand binding assay with [3H]NMS on CHO cell membranes, M2; details: n ≥ 3, ± standard deviation, read-out: Inhibition constants (Ki) M2
T1 construct: host or cells: CHO-K1
T1 sequence (P08172 1-466): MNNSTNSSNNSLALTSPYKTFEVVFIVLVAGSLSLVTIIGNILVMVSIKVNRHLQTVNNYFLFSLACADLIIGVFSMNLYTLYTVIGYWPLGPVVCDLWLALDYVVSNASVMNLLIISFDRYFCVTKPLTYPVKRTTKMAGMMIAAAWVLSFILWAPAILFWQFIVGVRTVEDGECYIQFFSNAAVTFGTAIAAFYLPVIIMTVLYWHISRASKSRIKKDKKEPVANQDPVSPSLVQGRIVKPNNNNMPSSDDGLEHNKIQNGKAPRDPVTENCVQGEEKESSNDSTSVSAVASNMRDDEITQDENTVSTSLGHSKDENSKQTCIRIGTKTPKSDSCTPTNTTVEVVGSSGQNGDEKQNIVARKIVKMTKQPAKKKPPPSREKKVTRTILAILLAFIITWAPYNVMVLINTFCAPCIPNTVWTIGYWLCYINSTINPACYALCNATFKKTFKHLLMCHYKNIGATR
Description: (§2) Cell membranes bearing human mAChRs M1-M5 were prepared as described previously. In short, stably transfected CHO cells were grown to confluence in T175 flasks, washed with ice-cold DPBS, and suspended in 2 mL 10 mM Tris/HCl, 1 mM EDTA-buffer (pH 7.4), and 200 µL protease inhibitor using a cell scraper. A cell homogenate was prepared by passing the cell suspension through a G29 needle and subsequently centrifuged (10 min, 1000× g, 4 °C). Ultracentrifugation of the supernatant (30 min, 100,000× g, 4 °C) yielded a membrane pellet, which was suspended in 125 µL 50 mM Tris/HCl-buffer (pH 7.4) per T175 flask and stored at −80 °C. Ten confluent T175 flask were processed for one batch.
(§3) The membrane-bound activity was recovered by filtration through GF/B filter paper pre-soaked in 0.1 % PEI and measured with a liquid scintillation counter. Maximum binding was measured by using 5 µL plain DMSO, and nonspecific binding was measured by using 5 µL 1 µM scopolamine in DMSO. […] Then, 3–12 µL membrane suspension were used per tube. IC50 values were calculated by a variable slope logistic regression using at least five distinct concentrations of test compound, pipetted in triplicates.

[3] = molecular target: T2, human mAChR M5 (Homo sapiens, UniProt P08912); assay: competitive radioligand binding assay with [3H]NMS on CHO cell membranes, M5; details: n ≥ 3, ± standard deviation, read-out: Inhibition constants (Ki) M5
T2 construct: host or cells: CHO-K1
T2 sequence (P08912 1-532): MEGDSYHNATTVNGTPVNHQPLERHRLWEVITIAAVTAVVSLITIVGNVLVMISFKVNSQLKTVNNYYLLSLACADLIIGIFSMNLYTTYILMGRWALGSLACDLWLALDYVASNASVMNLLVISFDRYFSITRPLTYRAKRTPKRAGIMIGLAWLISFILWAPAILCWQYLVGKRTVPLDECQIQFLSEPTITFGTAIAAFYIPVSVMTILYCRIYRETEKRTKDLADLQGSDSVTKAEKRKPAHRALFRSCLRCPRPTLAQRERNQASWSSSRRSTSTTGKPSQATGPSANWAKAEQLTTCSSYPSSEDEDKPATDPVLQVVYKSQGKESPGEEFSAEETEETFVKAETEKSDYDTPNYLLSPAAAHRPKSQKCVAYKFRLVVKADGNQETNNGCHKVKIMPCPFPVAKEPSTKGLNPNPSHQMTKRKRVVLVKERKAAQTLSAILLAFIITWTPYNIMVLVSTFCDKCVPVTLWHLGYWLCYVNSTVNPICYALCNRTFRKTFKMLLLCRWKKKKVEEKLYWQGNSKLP
Description: as §2, §3

[4] = molecular target: T3, human mAChR M3 (Homo sapiens, UniProt P20309); assay: competitive radioligand binding assay with [3H]NMS on CHO cell membranes, M3; details: n ≥ 3, ± standard deviation, read-out: Inhibition constants (Ki) M3
T3 construct: host or cells: CHO-K1
Description: as §2, §3

[5] = stability in Ham's F12 cell culture medium at 37 °C (UV-HPLC); type: physicochemical; details: for decomposed after 2 h: linear interpolation between 0 h and 10 h
Description: as §1

[6] = molecular target: T4, human mAChR M4 (Homo sapiens, UniProt P08173); assay: competitive radioligand binding assay with [3H]NMS on CHO cell membranes, M4; details: n ≥ 3, ± standard deviation, read-out: Inhibition constants (Ki) M4
T4 construct: host or cells: CHO-K1
T4 sequence (P08173 1-479): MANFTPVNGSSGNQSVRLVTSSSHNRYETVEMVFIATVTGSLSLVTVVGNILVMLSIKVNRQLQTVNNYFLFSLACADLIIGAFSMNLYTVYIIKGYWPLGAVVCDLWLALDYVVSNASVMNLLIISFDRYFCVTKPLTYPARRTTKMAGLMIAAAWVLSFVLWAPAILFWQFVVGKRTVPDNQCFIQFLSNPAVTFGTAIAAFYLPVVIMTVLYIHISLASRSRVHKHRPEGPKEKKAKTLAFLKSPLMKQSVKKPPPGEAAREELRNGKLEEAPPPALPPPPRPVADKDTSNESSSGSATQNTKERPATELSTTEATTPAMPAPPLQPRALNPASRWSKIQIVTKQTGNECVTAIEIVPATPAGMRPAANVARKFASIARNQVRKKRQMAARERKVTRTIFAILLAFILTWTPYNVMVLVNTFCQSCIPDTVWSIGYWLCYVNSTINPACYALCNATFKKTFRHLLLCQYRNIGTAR
Description: as §2, §3

[7] = molecular target: T5, mAChR M1 (Homo sapiens, UniProt P11229); assay: Fluo-4 direct calcium assay, agonist mode, CHO-M1 cells; type: cell-based; details: 0.001-100 µM
T5 construct: host or cells: CHO-K1
T5 sequence (P11229 1-460): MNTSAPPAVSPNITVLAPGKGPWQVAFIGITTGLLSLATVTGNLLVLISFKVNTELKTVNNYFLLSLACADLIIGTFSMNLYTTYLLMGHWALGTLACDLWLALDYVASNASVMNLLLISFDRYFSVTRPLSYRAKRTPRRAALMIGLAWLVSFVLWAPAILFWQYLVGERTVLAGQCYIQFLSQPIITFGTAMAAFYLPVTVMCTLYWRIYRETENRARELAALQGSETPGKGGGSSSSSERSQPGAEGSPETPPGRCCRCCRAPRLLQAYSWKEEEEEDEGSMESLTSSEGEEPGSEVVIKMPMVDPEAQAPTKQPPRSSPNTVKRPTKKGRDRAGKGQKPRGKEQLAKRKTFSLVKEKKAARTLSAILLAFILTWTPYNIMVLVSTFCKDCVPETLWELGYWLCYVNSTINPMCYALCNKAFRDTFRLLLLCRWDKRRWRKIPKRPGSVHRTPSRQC
Description: (§4) For the Fluo-4 direct^TM calcium assay kit (invitrogen), 100 µL of a 5 × 10^5 cells/mL suspension of CHO-M1 cells were seeded in black clear bottom 96-well plates (Corning). After settling of the cells for 24 h, the kit was performed according to the supplier’s recommendation. In detail, the media was removed, and 50 µL of Hanks-balanced salt solution (HBSS; Sigma Aldrich) were added, followed by 50 µL of the Fluo-4 buffer solution (including probenecid). The 96-well plates were incubated for 60 min at 37 °C in the dark. For the agonist assay, 100 µL of a double-concentrated dilution series of carbachol (positive control), 1, 2, and 3 were added with the end concentration of 100, 10, 1, 0.1, 0.01 and 0.001 µM in duplicates. The relative fluorescence was measured with an excitation wavelength of 494 nm and an emission wavelength of 516 nm. For the antagonist assay, 50 µL of a 4-fold concentrated dilution series of scopolamine hydrochloride (positive control), 1, 2, and 3 were added in duplicates. Subsequently a 40 µM stock solution of carbachol was added to all wells, and the relative fluorescence was measured with an excitation wavelength of 494 nm and an emission wavelength of 516 nm. Stock solution of 1, 2, and 3 were in DMSO with a final concentration of at most 1% of DMSO. All experiments were performed at least in three repetitions.

[8] = molecular target: T5, mAChR M1; assay: Fluo-4 direct calcium assay, antagonist mode (block of carbachol response), CHO-M1 cells; type: cell-based; details: 20 µM carbachol
Description: as §4

[9] = HPLC-logP determination; type: physicochemical; details: HPLC on apHERA stationary phase (5 µm, 10 × 6 mm), pH 7.4; read-out: HPLC-logPow pH7.4
[10] = molecular target: T5, mAChR M1; assay: competitive radioligand binding assay with [3H]NMS on CHO cell membranes, M1; details: for Ki: CHO cell membranes, [3H]NMS, n ≥ 3, ± standard deviation, read-out: Inhibition constants (Ki) M1
Description: as §2, §3

[11] = pH 7.4; cited from earlier work

T3 sequence (P20309 whole entry): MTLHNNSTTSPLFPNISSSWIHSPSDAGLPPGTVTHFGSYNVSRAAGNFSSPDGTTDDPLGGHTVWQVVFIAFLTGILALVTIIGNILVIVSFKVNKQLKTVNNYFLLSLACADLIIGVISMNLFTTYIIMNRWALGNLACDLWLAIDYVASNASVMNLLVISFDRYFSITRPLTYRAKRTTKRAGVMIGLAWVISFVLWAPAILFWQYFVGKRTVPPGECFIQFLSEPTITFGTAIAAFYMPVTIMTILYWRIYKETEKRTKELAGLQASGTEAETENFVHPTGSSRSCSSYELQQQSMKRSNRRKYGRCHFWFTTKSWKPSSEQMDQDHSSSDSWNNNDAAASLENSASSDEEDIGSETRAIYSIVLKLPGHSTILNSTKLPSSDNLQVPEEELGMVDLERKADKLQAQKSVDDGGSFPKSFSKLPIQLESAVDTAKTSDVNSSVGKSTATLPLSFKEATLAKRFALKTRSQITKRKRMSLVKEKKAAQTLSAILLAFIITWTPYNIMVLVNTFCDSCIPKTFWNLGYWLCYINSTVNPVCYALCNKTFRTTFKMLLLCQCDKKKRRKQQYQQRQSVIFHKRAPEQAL

Row | SMILES | decomposition after 60 h [1] | decomposed after 2 h [1] [%] | Ki [2] [µM] | Ki [3] [µM] | Ki [4] [µM] | decomposed after 2 h [5] [%] | Ki [6] [µM] | calcium release (agonistic activity) [7] | functionality (block of calcium response to carbachol) [8] | chromatographic logD [9] | Ki [10] [µM] | HPLC-logPow pH7.4 [11] | decomposition after 60 h [5] | selectivity between M1 and M2 ([10]; Ki M2 divided by Ki M1) [fold] | M1 over M4 subtype selectivity ([10]; Ki M4 divided by Ki M1, Ki values of this work) [fold]
1 | CN1CCC=C(C(=O)O[C@@H](c2ccccc2)[C@H](O)c2ccccc2)C1 (racemic) [compound 3, Rac. (1S,2R)-2-hydroxy-1,2-diphenylethyl 1-methyl-1,2,5,6-tetrahydropyridine-3-carboxylate] | decomposed to the same extent | 0.8 | 3.7 ± 1 | 0.97 ± 0.09 | 3.2 ± 0.5 | 2.5 | 1.6 ± 0.2 | no increase in calcium release | antagonistic binding | 2.39 ± 0.1 | 0.38 ± 0.09 | – | – | – | –
2 | CN1CCC=C(C(=O)OC(c2ccccc2)c2ccccc2)C1 [arecaidine diphenylmethyl ester] | – | – | – | – | – | – | – | – | – | – | – | 3.32 ± 0.04 | – | – | –
3 | CN1CCC=C(C(=O)O[C@H](c2ccccc2)[C@H](O)c2ccccc2)C1 [compound 1, (1R,2R)-(+)-2-hydroxy-1,2-diphenylethyl 1-methyl-1,2,5,6-tetrahydropyridine-3-carboxylate] | decomposed to the same extent | 0.8 | 1.9 ± 0.3 | 0.6 ± 0.075 | 1.3 ± 0.6 | 2.5 | 0.7 ± 0.3 | no increase in calcium release | antagonistic binding | 2.24 ± 0.12 | 0.099 ± 0.019 | – | significantly stronger compared to 2 | 19 | 7
4 | CN1CCC=C(C(=O)O[C@@H](c2ccccc2)[C@@H](O)c2ccccc2)C1 [compound 2, (1S,2S)-(−)-2-hydroxy-1,2-diphenylethyl 1-methyl-1,2,5,6-tetrahydropyridine-3-carboxylate] | decomposed to the same extent | 0.8 | 8 ± 2 | 1.3 ± 0.3 | 1.6 ± 0.3 | 2.5 | 2.7 ± 0.6 | no increase in calcium release | antagonistic binding | 2.24 ± 0.12 | 0.8 ± 0.2 | – | – | – | –

From article PMC7760838, “Synthesis, Biological, and Computational Evaluation of Antagonistic, Chiral Hydrobenzoin Esters of Arecaidine Targeting mAChR M1” (Pharmaceuticals, 2020)
